Experimental data from patent US9453244B2, “Method for producing a monoalkene by enzymatic conversion of an alkyl monoester” (Scientist of Fortune S.A., priority 2012, dated 2016).

Tests used:
[1] = test system: purified terpene synthases; assay: Propylene production from propan-2-yl diphosphate with purified terpene synthases (headspace GC/FID); format: biochemical; conditions: 50 mM substrate, 5 mg terpene synthase in 0.5 ml, 37° C., 60 hours
Description: (§1) The enzymatic assays were carried out under the following conditions: 50 mM Tris-HCl pH 7.5 100 mM MgCl2 50 mM KCl 5 mM DTT 50 mM propan-2-yl diphosphate 5 mg of the terpene synthase was added to 0.5 ml of reaction mixture. An enzyme-free control reaction was carried out in parallel. Assays were incubated at 37° C. for 60 hours in a 1.5 ml sealed glass vial (Interchim) with shaking. One ml of the headspace phase was then collected and injected into a gas chromatograph Varian 430-GC equipped with a flame ionization detector (FID). Nitrogen was used as carrier gas with a flow rate of 1.5 mL/min. Volatile compounds were chromatographically separated on RT-Alumina Bond/Na2SO4 column (Restek) using an isothermal mode at 130° C. The enzymatic reaction product was identified by comparison with propylene standard (Sigma). Under these GC conditions, the retention time for propylene was 2.8 min. […] Gas chromatography-mass spectrometry (GC-MS) was then used to confirm the identity of the product detected by gas chromatography with flame ionization. The samples were analyzed on a Varian 3400 CX gas chromatograph equipped with Varian Saturn 3 mass selective detector. The mass spectrum of propylene obtained by enzymatic conversion of propan-2-yl diphosphate was similar to the one of commercial propylene (FIG. 3).

[2] = biological target: T1, isoprene synthase from Pueraria montana var. lobata (Pueraria montana var. lobata, UniProt Q6EJ97); assay: GC-MS confirmation of propylene produced from propan-2-yl diphosphate in the enzymatic reaction; format: biochemical; conditions: FIG. 3
T1 construct: 6xHis (N); made in house; host or cells: E. coli BL21(DE3), pET 25b(+)
T1 sequence (Q6EJ97 46-608): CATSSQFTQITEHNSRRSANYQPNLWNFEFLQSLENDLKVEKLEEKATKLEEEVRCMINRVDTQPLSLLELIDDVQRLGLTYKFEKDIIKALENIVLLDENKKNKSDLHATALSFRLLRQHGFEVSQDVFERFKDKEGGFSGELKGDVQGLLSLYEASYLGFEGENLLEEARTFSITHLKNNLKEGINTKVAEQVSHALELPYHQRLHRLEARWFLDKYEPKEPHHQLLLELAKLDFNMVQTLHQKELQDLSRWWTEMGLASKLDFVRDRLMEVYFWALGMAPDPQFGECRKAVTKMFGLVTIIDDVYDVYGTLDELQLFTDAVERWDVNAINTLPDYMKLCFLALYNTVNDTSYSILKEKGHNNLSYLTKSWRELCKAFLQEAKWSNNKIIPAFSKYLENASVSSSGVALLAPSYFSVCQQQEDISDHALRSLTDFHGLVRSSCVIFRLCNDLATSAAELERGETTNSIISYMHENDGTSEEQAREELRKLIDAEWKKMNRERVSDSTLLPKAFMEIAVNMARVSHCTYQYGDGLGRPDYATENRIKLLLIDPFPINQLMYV
Description: as §1, with “5” for “The enzymatic assays were carried out under the following conditions: 50 mM Tris-HCl pH 7.5 100 mM MgCl2 50 mM KCl 5 mM DTT 50 mM propan-2-yl diphosphate 5”

Question: Which “propylene production from the substrate (enzymatic conversion)” value ([1]; pH 7.5) does the source give for propan-2-yl diphosphate here?
Answer: significant production of propylene

Question: What about the “propylene production from the substrate (enzymatic conversion)” value ([1]; pH 7.5, listed as propan-2-yl) of the same substance?
Answer: able to convert propan-2-yl into propylene

Question: What about the “propylene produced from the substrate, identity confirmed by mass spectrum” value [2] of the same substance?
Answer: propylene produced
